The test system of one test is hippocampal slices (LTP). The test can be described thus: Long-term potentiation (LTP) in hippocampal slices. Conditions: mouse hippocampal slices; FIG. 19. An excerpt:
6-8 week old C57/Bl6 mice or rats underwent cervical dislocation followed by decapitation. The brain was immediately transferred to an ice cold NMDG-based cutting solution consisting of: (in mM): 120 NMDG, 2.5 KCl, 1.2 NaH2PO4, 25 NaHCO3, 1.0 CaCl2, 7.0 MgCl2, 2.4 Na-pyruvate, 1.3 Na-ascorbate, 20 D-glucose with pH adjusted to 7.35 using HCl acid (unless stated, all chemicals and drugs were purchased from Sigma or BioShop, Canada). The hippocampus was dissected out and transverse hippocampal slices (400 μm) were obtained using a manual tissue chopper (Stoelting, Wood Dale, Ill., USA). Slices recovered in a heated (30° C.) incubating chamber for 1 hr which contained ACSF composed of (in mM): 124 NaCl, 3 KCl, 1.25 NaH2PO4, 1 MgSO47H2O, 2 CaCl2), 26 NaHCO3 and 15 D-glucose which was bubbled continuously with carbogen (95% O2/5% CO2) (pH to 7.3). After 30 additional minutes at room temperature, slices were transferred to a submerged recording chamber and were perfused continuously with carbogenated ACSF (2-3 ml/min). Whole-cell recordings of CA1 pyramidal neurons were performed using the “blind” method with a MultiClamp 700B amplifier. EPSCs (excitatory post synaptic currents) were elicited by stimulating the SC pathway. For isolation of NMDAR currents, cells were voltage clamped at +40 mV. […]

Test [1] has as its system post-stroke locomotory behavior. The test can be described thus: Neurological behavioral tests after stroke. It is filed as in vivo, rat. Conditions: 28 days after stroke onset, versus untreated control rats. How it is done:
To assess functional recovery of neural circuits damaged by ischemic insult, three locomotor activity (sensorimotor) deficit modalities were tested: 1) vertical activity (the total number of beam interruptions that occurred in the vertical sensor); 2) number of vertical movements (number of animal rears); and 3) vertical movement time (the amount of time, in seconds, the animal rears) using the VersaMax Animal Activity Monitor (Accuscan Instruments). An ischemic rat was placed into the recording chamber during the ‘dark’ phase of the day/night cycle, and vertical movement time (seconds) was automatically recorded by computer over a 2 h period. The total length of vertical movement represents the recovery of locomotor circuits injured by ischemic stroke.
Neurobehavioral assays were performed to assess functional recovery of neurons post-stroke.

The next test has as its target T1, GluN1^L135Q/GluN2A (Rattus norvegicus, UniProt P35439+Q00959, L135Q).
T1 construct: expressed in transfected cells; host or cells: HEK293
Briefly: Patch clamp in HEK293 cells expressing mutant GluN1 L135Q/GluN2A. Format: cell-based. How it is done:
Whole cell patch-clamp recordings were performed under voltage-clamp mode using an Axopatch 200B or 1D patch-clamp amplifier (Molecular Devices). Whole-cell currents were recorded at a holding potential of −60 mV unless indicated elsewhere, and signals were filtered at 2 kHz, digitized at 10 kHz (Digidata 1322A). Recording pipettes (3-5 MΩ) were filled with intracellular solution containing (mM): CsCl 140, HEPES 10, Mg-ATP 4, QX-314 5, pH 7.20; osmolarity, 290-295 mOsm. BAPTA (10 mM) was added in the intracellular solution (unless otherwise specified). The coverslips were continuously superfused with extracellular solution containing (mM): NaCl 140, KCl 5.4, HEPES 10, CaCl2 1.3, glucose 20, pH 7.4; osmolarity, 305-315 mOsm. NMDA-induced currents were applied by NMDA through perfusion fast-step (Warner Instruments). With perfusion fast-step system, NMDA application was achieved by using a two-square barrel glass tubing and depending on the age of the cultured neurons, CNQX (10 μM), TTX (0.5 μM) or BIC (10 μM) were added in the extracellular solution to minimize the activation of ionotropic glutamate receptors and voltage-gated sodium channels, respectively. All experiments were performed at room temperature. Recordings from at least six HEK293 cells/neurons were performed for all active compounds. […]

Another test deals with cortical neurons. The test can be described thus: NMDA-induced excitotoxicity (LDH release) in cortical neurons. Conditions: in the absence of NVP-AAM007; FIG. 16. Format: cell-based, rat. How it is done: Lactate dehydrogenase (LDH) is a cytoplasmic enzyme that can convert nicotinamide adenine dinucleotide (NAD) into NADH (the reduced form). LDH is released from cells into culture medium when the plasma membrane integrity is compromised. Therefore, the amount of released LDH represents the degree of cell death. In this study, the extracellular LDH level was measured using an in vitro toxicology assay kit obtained from Sigma-Aldrich (no. TOX-7). The basis of this LDH assay is as follows: (1) LDH reduces NAD into NADH, (2) the resulting NADH is then used in the stoichiometric conversion of a tetrazolium dye, and (3) the resulting colored compound is measured by a spectrophotometric microplate reader at a wavelength of 490 nm. The cell death rate was expressed as a ratio (%) between the absorbance of the treated group and that of the control group.
Cortical cultures were treated with Npam43, and assessed for NMDA-induced excitotoxicity after 20-24 hrs by measuring lactate dehydrogenase (LDH) release. […] LDH release was measured using an in vitro toxicology assay kit obtained from Sigma-Aldrich (no. TOX-7). The cell death rate was expressed as a ratio (%) between the absorbance of the treated group and that of the control group.

T1 sequence (Q00959 23-1464, other chains not shown): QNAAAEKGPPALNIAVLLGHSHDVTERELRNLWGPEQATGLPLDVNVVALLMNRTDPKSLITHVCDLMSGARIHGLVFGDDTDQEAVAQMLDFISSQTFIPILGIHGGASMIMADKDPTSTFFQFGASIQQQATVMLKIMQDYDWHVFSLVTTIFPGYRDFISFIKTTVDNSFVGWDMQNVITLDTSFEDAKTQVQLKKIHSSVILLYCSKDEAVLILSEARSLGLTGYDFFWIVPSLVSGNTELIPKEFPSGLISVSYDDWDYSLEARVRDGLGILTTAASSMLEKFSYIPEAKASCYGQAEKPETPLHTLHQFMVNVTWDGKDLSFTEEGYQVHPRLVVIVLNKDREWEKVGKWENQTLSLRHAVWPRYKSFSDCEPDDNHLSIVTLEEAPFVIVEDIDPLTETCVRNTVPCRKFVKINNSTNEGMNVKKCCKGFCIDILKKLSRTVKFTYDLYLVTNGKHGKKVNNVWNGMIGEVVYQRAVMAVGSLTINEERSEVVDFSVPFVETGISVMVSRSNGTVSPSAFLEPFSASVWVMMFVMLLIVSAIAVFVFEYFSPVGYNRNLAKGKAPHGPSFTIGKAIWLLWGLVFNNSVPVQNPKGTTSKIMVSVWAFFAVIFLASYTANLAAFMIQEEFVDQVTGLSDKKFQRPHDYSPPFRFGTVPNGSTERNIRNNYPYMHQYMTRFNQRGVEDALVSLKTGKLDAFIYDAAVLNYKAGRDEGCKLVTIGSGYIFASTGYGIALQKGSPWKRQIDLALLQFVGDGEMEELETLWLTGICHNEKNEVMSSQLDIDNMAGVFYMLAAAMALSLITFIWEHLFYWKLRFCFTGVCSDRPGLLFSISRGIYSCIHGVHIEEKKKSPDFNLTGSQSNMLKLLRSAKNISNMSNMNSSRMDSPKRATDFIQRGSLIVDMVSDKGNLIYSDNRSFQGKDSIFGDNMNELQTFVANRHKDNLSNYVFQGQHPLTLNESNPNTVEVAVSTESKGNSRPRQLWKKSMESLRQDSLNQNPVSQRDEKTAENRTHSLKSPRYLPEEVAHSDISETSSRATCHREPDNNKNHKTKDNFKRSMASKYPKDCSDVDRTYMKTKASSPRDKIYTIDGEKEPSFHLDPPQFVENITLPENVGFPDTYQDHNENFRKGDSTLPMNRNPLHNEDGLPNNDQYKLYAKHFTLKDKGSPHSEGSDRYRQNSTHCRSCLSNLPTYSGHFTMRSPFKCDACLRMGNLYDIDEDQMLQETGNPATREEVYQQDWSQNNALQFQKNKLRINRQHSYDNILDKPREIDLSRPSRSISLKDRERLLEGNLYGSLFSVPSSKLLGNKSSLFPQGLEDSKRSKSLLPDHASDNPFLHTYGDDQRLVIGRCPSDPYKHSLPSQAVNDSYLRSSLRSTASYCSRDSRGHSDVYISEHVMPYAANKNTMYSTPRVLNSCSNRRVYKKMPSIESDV

For `CCOc1cc(Cl)c(Cl)c(/C=N/NC(=O)c2ccccc2Br)c1O` [Npam43, (E)-2-bromo-N′-(2,3-dichloro-5-ethoxy-6-hydroxybenzylidene)benzohydrazide], the “Induction of LTP” value in the test with hippocampal slices (LTP) is “can facilitate the induction of LTP”. Also, the Post-stroke locomotory behavior entry in test [1] was “increased post-stroke locomotory behavior”. Also, the Relative potentiation on GluN1^L135Q/GluN2A (Table 3) was determined as 47.1 ± 2.8%. In addition, at GluN1^L135Q/GluN2A (normalized to wild-type), the “Net Difference potentiation” value is given as −77.5±2.12%. In the test with cortical neurons, the NMDA-induced excitotoxicity entry is reported as “reduced”.

For the origin of these results see patent US11166924B2, “N-methyl-d-aspartate receptor allosteric modulators and methods for their use” (Qingdao Primedicine Pharmaceutical Company, Ltd., priority 2016, dated 2021).
